From US20100221388A1, “INSTANTLY SOLUBLE COMPOSITIONS FOR CALCIUM FORTIFICATION OF BEVERAGES” (priority 2008, published 2010) come the findings set out here.

One data set concerns Casein. Briefly: coagulation in casein-containing preparations with calcium salts (150 mg elemental calcium). It is filed as physicochemical. The following applies: room temperature.
Data set [1] is described as follows: visual test of transparency for calcium-oxalate crystal formation in hot black tea with calcium salt (100 mg elemental calcium). It is filed as physicochemical. The following applies: 240 ml hot black tea. The procedure: The data describes the effect of different levels of Mg and ascorbic acid (vitamin C) on appearance of visible calcium oxalate precipitation. The experiments were performed with various soluble calcium salts by adding different levels of ascorbic acid and Magnesium citrate and testing the impact on formation of calcium-oxalate crystals in tea preparations. […] The calcium salt mixture was added and stirred into a cup holding 240 ml of hot black tea made with boiling tap water. A visual test of transparency was made at 5, 10, 15 and 20 minutes after adding the mixture to the tea for determining any impact on solution clarity by formation of calcium-oxalate crystals. If visible crystals were formed within 10 minutes the result was determined “unacceptable”, if visible crystals were formed between 10-20 minutes then the results was marked “borderline”. If no crystals were visible within 20 minutes the result was marked “acceptable”. FIGS. 1-5 show the experimental results for various calcium salts. In each of the figures the X-axis marks the amount of Magnesium Citrate (mg) and the Y-axis marks the amount of ascorbic acid (mg). Each indicia of a circle, diamond or square signifies the experimental outcome of a separate experiment; circles indicate an acceptable outcome, diamonds indicate a borderline acceptable (less than optimal) outcome, and squares indicate an unacceptable outcome.

[2] abbreviates: casein-containing non-dairy creamer in water.

As for `O=P([O-])([O-])O.[K+].[K+]` [PP, Potassium phosphate dibasic anhydrous], in the data set on Casein (setting [2]), the “level sufficient to limit the coagulation to a minimal and acceptable change in appearance” value worked out at 825 mg; the “lowest level required for preventing coagulation” value is recorded as 3000 mg. Besides, in the data set on Casein (half & half (mix of milk and cream)), the “lowest level that prevented coagulation” value was 500 mg. The “amount sufficient to prevent coagulation” value in the data set on Casein (whole milk (about 3% fat)) is 10 mg.
Regarding `O=C1O[C@H]([C@@H](O)CO)C(O)=C1O` [ascorbic acid], the “minimal amount of ascorbic acid required to delay or prevent calcium oxalate formation” value in data set [1] (in general across calcium salts (FIGS. 1-5)) is given as 30 mg.
As to `CC(=O)[O-].CC(=O)[O-].[Ca+2]` [calcium acetate, Calcium diacetate], in data set [1] (ascorbic acid with or without Magnesium Citrate), the “need for additives to delay or prevent calcium oxalate formation, by calcium salt” value is on record as “additional “competing salt” is required even with higher level of ascorbic acids”.
